Where a name gives a salt, the structure may show the parent alone. Read-outs that look alike come from different tables or passages of the source.
How the values were obtained:
Type in all cases: cell-based, human
[1] = test system: MYB mRNA; assay: Splicing RT-qPCR assay, MYB canonical (CJ) and alternative (AJ) junction mRNA
How it was run: (§1)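 Compound-induced exon inclusion is tracked as an increase in AJ transcript alongside the CJ transcript. Cells (A673 normalized to PPIA; K562 to GAPDH or GUSB) are dosed 24 h with a serial dilution topping at 10 uM, ≤0.25% DMSO, then lysed and analysed by RT-qPCR in at least duplicate.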

[2] = test system: HTT mRNA; assay: Splicing RT-qPCR gene panel, HTT canonical junction (CJ) mRNA; conditions: Tables 4A/4B, read-out: HTT (IC50, decrease in CJ mRNA, gene panel)
How it was run: (§2)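 A673/K562, 24 h cpd, 11-pt 3-fold from 10 uM, DMSO ≤0.25%. Lysis, direct RT-qPCR of CJ isoform, ≥duplicate. GAPDH/GUSB/PPIA norm, ΔΔCt vs DMSO → RQ → % response.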

[3] = test system: HTT mRNA; assay: Splicing RT-qPCR assay, HTT canonical (CJ) and alternative (AJ) junction mRNA
How it was run: as §1

[4] = test system: SMN2 mRNA; assay: Splicing RT-qPCR gene panel, SMN2 canonical junction (CJ) mRNA; conditions: Tables 4A/4B, read-out: SMN2 (IC50, decrease in CJ mRNA, gene panel)
How it was run: as §2

[5] = test system: Target C mRNA; assay: Splicing RT-qPCR gene panel, Target C canonical junction (CJ) mRNA; conditions: Tables 4A/4B, read-out: Target C (IC50, decrease in CJ mRNA, gene panel)
How it was run: as §2

[6] = Homo sapiens, 24 h, A673 or K562 cells, 24 hours compound treatment, RT-qPCR, read-out: MYB AJ (AC50, increase in alternative junction mRNA)
[7] = Homo sapiens, 24 h, A673 or K562 cells, 24 hours compound treatment, RT-qPCR, read-out: MYB CJ (IC50, decrease in canonical junction mRNA)
[8] = Homo sapiens, Tables 4A/4B, canonical junction qPCR panel, read-out: MYB (IC50, decrease in CJ mRNA, gene panel)
[9] = Homo sapiens, 24 h, A673 or K562 cells, 24 hours compound treatment, read-out: HTT CJ (IC50, decrease in canonical junction mRNA)
[10] = Homo sapiens, A673 or K562 cells, 24 hours compound treatment, read-out: HTT AJ (AC50, increase in alternative junction mRNA)
[11] = Homo sapiens, Table 3B, canonical junction mRNA, RT-qPCR, read-out: MYB CJ (IC50, decrease in CJ mRNA)
[12] = Homo sapiens, Table 3B, alternative junction mRNA, RT-qPCR, read-out: MYB AJ (AC50, increase in AJ mRNA)
[13] = Homo sapiens, Table 3B, alternative junction mRNA, read-out: HTT AJ (AC50, increase in AJ mRNA)
[14] = Homo sapiens, Table 3B, canonical junction mRNA, read-out: HTT CJ (IC50, decrease in CJ mRNA)

SMILES | IC50 [1, 7] [nM] | IC50 [1, 8] [nM] | IC50 ([2]; Homo sapiens) [nM] | IC50 [3, 9] [nM] | IC50 ([4]; Homo sapiens) [nM] | IC50 ([5]; Homo sapiens) [nM] | IC50 [1, 11] [nM] | IC50 [3, 14] [nM] | IC50 ([1]; Table 3B, canonical junction mRNA, RT-qPCR, read-out: MYB CJ (IC50, decrease in CJ mRNA)) [nM] | IC50 ([1]; Tables 4A/4B, canonical junction qPCR panel, read-out: MYB (IC50, decrease in CJ mRNA, gene panel)) [nM] | IC50 [2] [nM] | IC50 ([3]; Table 3B, canonical junction mRNA, read-out: HTT CJ (IC50, decrease in CJ mRNA)) [nM] | IC50 [4] [nM] | IC50 [5] [nM] | AC50 [1, 6] [nM] | AC50 [3, 10] [nM] | AC50 [1, 12] [nM] | AC50 [3, 13] [nM] | AC50 ([1]; Table 3B, alternative junction mRNA, RT-qPCR, read-out: MYB AJ (AC50, increase in AJ mRNA)) [nM] | AC50 ([3]; Table 3B, alternative junction mRNA, read-out: HTT AJ (AC50, increase in AJ mRNA)) [nM]
Cc1cn2nc(-c3ccc(C(=O)NC4CCNCC4)c4nn(C)cc34)cc(C)c2n1 [Compound 281] | 1000 to 10000 | 1000 to 10000 | 1000 to 10000 | 1000 to 10000 | 100 to 1000 | 1000 to 10000 |  |  |  |  |  |  |  |  | 1000 to 10000 | 1000 to 10000 |  |  |  | 
Cc1cn2cc(NC(=O)c3ccc(N4CCC(NC5(CF)CC5)C4)c4cn(C)nc34)cc(F)c2n1 (stereo not drawn) [Compound 373, N-{8-fluoro-2-methylimidazo[1,2-a]pyridin-6-yl}-4-(3-{[1-(fluoromethyl)cyclopropyl]amino}pyrrolidin-1-yl)-2-methylindazole-7-carboxamide] | < 100 | < 100 | 1000 to 10000 | 1000 to 10000 | < 100 | > 10000 |  |  |  |  |  |  |  |  | < 100 | 1000 to 10000 |  |  |  | 
Cc1cn2nc(-c3ccc(C(=O)NC4CCNCC4)c4oc(C)cc34)cc(F)c2n1 [Compound 283] | 1000 to 10000 | 1000 to 10000 | 1000 to 10000 | 1000 to 10000 | 100 to 1000 | > 10000 |  |  |  |  |  |  |  |  | > 10000 | > 10000 |  |  |  | 
CCn1cc2c(N3CC[C@@H](NC4CC4)C3)ccc(C(=O)Nc3cc(F)c4nc(C)cn4c3)c2n1 [Compound 409, (R)-4-(3-(cyclopropylamino)pyrrolidin-1-yl)-2-ethyl-N-(8-fluoro-2-methylimidazo[1,2-a]pyridin-6-yl)-2H-indazole-7-carboxamide] | 100 to 1000 | 100 to 1000 | > 10000 | > 10000 | < 100 | > 10000 |  |  |  |  |  |  |  |  | < 100 | > 10000 |  |  |  | 
Cc1cn2nc(NC(=O)c3ccc(N4CCNCC4)c4cn(C)nc34)nc2c(C)n1 [Compound 253] | > 10000 | > 10000 | > 10000 | > 10000 | 1000 to 10000 | > 10000 |  |  |  |  |  |  |  |  | > 10000 | > 10000 |  |  |  | 
Cc1cn2cc(NC(=O)c3ccc(N4CCNCC4)c4cn(C)nc34)c(F)cc2n1 [Compound 333, N-{7-fluoro-2-methylimidazo[1,2-a]pyridin-6-yl}-2-methyl-4-(piperazin-1-yl) indazole-7-carboxamide trifluoroacetate] | 100 to 1000 | 100 to 1000 | 1000 to 10000 | 1000 to 10000 | < 100 | > 10000 |  |  |  |  |  |  |  |  | 100 to 1000 | 1000 to 10000 |  |  |  | 
Cc1cn2cc(NC(=O)c3ccc(N4CCNCC4)c4cn(Cc5cn[nH]c5)nc34)cc(F)c2n1 [Compound 341, N-{8-fluoro-2-methylimidazo[1,2-a]pyridin-6-yl}-4-(piperazin-1-yl)-2-(1H-pyrazol-4-ylmethyl)indazole-7-carboxamide] | 1000 to 10000 | 1000 to 10000 | > 10000 | > 10000 | 100 to 1000 | > 10000 |  |  |  |  |  |  |  |  | 1000 to 10000 | > 10000 |  |  |  | 
COc1cc(C(=O)Nc2cc(F)c3nc(C)cn3c2)c2nn(C)cc2c1N1CCNCC1 [Compound 311, N-{8-fluoro-2-methylimidazo[1,2-a]pyridin-6-yl}-5-methoxy-2-methyl-4-(piperazin-1-yl)indazole-7-carboxamide] | 100 to 1000 | 100 to 1000 | > 10000 | > 10000 | < 100 | > 10000 |  |  |  |  |  |  |  |  | 1000 to 10000 | > 10000 |  |  |  | 
Cc1cn2cc(NC(=O)c3ccc(N4CCNCC4)n4cc(C)nc34)cc(F)c2n1 [Compound 908] |  | < 100 | 100 to 1000 |  | < 100 | 1000 to 10000 | < 100 | 100 to 1000 |  |  |  |  |  |  |  |  | < 100 | 100 to 1000 |  | 
C=C(C)n1ncc2c(N3CCNCC3)ccc(C(=O)Nc3cc(F)c4nc(C)cn4c3)c21 [Compound 416, N-(8-fluoro-2-methylimidazo[1,2-a]pyridin-6-yl)-4-(piperazin-1-yl)-1-(prop-1-en-2-yl)-1H-indazole-7-carboxamide] | > 10000 | > 10000 | > 10000 | > 10000 | 1000 to 10000 | > 10000 |  |  |  |  |  |  |  |  | > 10000 | > 10000 |  |  |  | 
CCn1cc2c(N3CC4(CNC4)C3)ccc(C(=O)Nc3cc(F)c4nc(C)cn4c3)c2n1 [Compound 477, 4-{2,6-diazaspiro[3.3]heptan-2-yl}-2-ethyl-N-{8-fluoro-2-methylimidazo[1,2-a]pyridin-6-yl}indazole-7-carboxamide] | 100 to 1000 | 100 to 1000 | 1000 to 10000 | 1000 to 10000 | 100 to 1000 | > 10000 |  |  |  |  |  |  |  |  | 100 to 1000 | > 10000 |  |  |  | 

The next lines start with results.

IC50 [1, 7] [nM] | IC50 [1, 8] [nM] | IC50 ([2]; Homo sapiens) [nM] | IC50 [3, 9] [nM] | IC50 ([4]; Homo sapiens) [nM] | IC50 ([5]; Homo sapiens) [nM] | IC50 [1, 11] [nM] | IC50 [3, 14] [nM] | IC50 ([1]; Table 3B, canonical junction mRNA, RT-qPCR, read-out: MYB CJ (IC50, decrease in CJ mRNA)) [nM] | IC50 ([1]; Tables 4A/4B, canonical junction qPCR panel, read-out: MYB (IC50, decrease in CJ mRNA, gene panel)) [nM] | IC50 [2] [nM] | IC50 ([3]; Table 3B, canonical junction mRNA, read-out: HTT CJ (IC50, decrease in CJ mRNA)) [nM] | IC50 [4] [nM] | IC50 [5] [nM] | SMILES | AC50 [1, 6] [nM] | AC50 [3, 10] [nM] | AC50 [1, 12] [nM] | AC50 [3, 13] [nM] | AC50 ([1]; Table 3B, alternative junction mRNA, RT-qPCR, read-out: MYB AJ (AC50, increase in AJ mRNA)) [nM] | AC50 ([3]; Table 3B, alternative junction mRNA, read-out: HTT AJ (AC50, increase in AJ mRNA)) [nM]
< 100 | < 100 | 100 to 1000 | 100 to 1000 | < 100 | 1000 to 10000 |  |  |  |  |  |  |  |  | Cc1cn2cc(NC(=O)c3c(F)cc(N4CCC(N(C)C)C4)c4cn(C)nc34)cc(F)c2n1 (stereo in doubt) [Compound 464, 4-[(3S)-3-(dimethylamino)pyrrolidin-1-yl]-6-fluoro-N-{8-fluoro-2-methylimidazo[1,2-a]pyridin-6-yl}-2-methylindazole-7-carboxamide] | < 100 | 100 to 1000 |  |  |  | 
100 to 1000 | 100 to 1000 | > 10000 | > 10000 | < 100 | > 10000 |  |  |  |  |  |  |  |  | Cn1cc2c(N3CCNCC3)ccc(C(=O)Nc3cc(F)c4nc(CO)cn4c3)c2n1 [Compound 389, N-[8-fluoro-2-(hydroxymethyl)imidazo[1,2-a]pyridin-6-yl]-2-methyl-4-(piperazin-1-yl) indazole-7-carboxamide; trifluoroacetic acid] | 1000 to 10000 | > 10000 |  |  |  | 
< 100 | < 100 | 1000 to 10000 | 1000 to 10000 | < 100 | 1000 to 10000 |  |  |  |  |  |  |  |  | Cn1cc2cc(NC(=O)c3ccc(N4CCNCC4)c4cn(C)nc34)cc(F)c2n1 [Compound 319, N-(7-fluoro-2-methylindazol-5-yl)-2-methyl-4-(piperazin-1-yl) indazole-7-carboxamide hydrochloride] | < 100 | 1000 to 10000 |  |  |  | 
 | 100 to 1000 | 1000 to 10000 |  | < 100 | 1000 to 10000 | 100 to 1000 | 1000 to 10000 |  |  |  |  |  |  | CCn1cc2c(N3CCC(NC)C3)ncc(C(=O)Nc3cc(F)c4nc(C)cn4c3)c2n1 (stereo not drawn) [Compound 953] |  |  | 100 to 1000 | 1000 to 10000 |  | 
> 10000 | > 10000 | 1000 to 10000 | 1000 to 10000 | 100 to 1000 | > 10000 |  |  |  |  |  |  |  |  | Cc1cn2nc(-c3ccc(C(=O)NC4CCNCC4)c4oc(C)cc34)cc(C)c2n1 [Compound 282] | > 10000 | 1000 to 10000 |  |  |  | 
 |  |  |  |  |  |  |  | < 100 | < 100 | 100 to 1000 | 100 to 1000 | < 100 | 100 to 1000 | CCc1cc2c(N3CCNCC3)ccc(C(=O)Nc3cc(F)c4nc(C)cn4c3)n2n1 [Compound 916] |  |  |  |  | < 100 | 100 to 1000
100 to 1000 | 100 to 1000 | 100 to 1000 | 100 to 1000 | < 100 | 1000 to 10000 |  |  |  |  |  |  |  |  | Cc1cn2cc(NC(=O)c3ccc(N4CC5(CNC5)C4)c4cc(C)oc34)cc(F)c2n1 [Compound 205] | 100 to 1000 | 1000 to 10000 |  |  |  | 
